Among the test systems are Escherichia coli BW25113; Escherichia coli UB1005; Candida albicans.
What all share (assay): ≥ marks a high value that may be exact or a test limit, other limits are often not marked, values filed in µg/mL are converted to µM
Experiment [1] has as its system Escherichia coli ATCC 25726.
In experiment [2] the test system is Staphylococcus aureus ATCC 25923.
The subject of experiment [3] is Escherichia coli ATCC 25922.
The test system of experiment [4] is Candida albicans ATCC 90028.
Experiment [5] relates to Pseudomonas aeruginosa ATCC 27853.
For experiment [6], the system named is Klebsiella pneumoniae ATCC 700603.
Experiment [7] has as its system Escherichia coli KCTC 1682.
Experiment [8] concerns Salmonella enterica serovar Typhimurium.
The test system of experiment [9] is Pseudomonas aeruginosa H103.
Experiment [10] relates to Staphylococcus epidermidis KCTC 1917.
Experiment [11] has as its system Bacillus subtilis KCTC 3068.
For experiment [12], the system named is Salmonella typhimurium KCTC 1926.
In experiment [13] the test system is Staphylococcus aureus KCTC 1621.
The test system of experiment [14] is Pseudomonas aeruginosa KCTC 1637.
The test system of experiment [15] is Enterococcus faecalis ATCC 29212.
For experiment [16], the system named is Staphylococcus epidermidis.

Each structure is given as a SMILES string. ≈ marks a conversion by molar mass, not a printed value.

Experimental findings from DBAASP are described below.

By MIC is commonly meant the lowest concentration that inhibits growth of the organism. Low readings indicate inhibition by little substance, high ones a need for much substance.

With `CSCC[C@H](NC(=O)[C@H](CC(C)C)NC(=O)[C@@H]1CCCN1C(=O)CNC(=O)[C@H](CC(C)C)NC(=O)[C@H](CC(C)C)NC(=O)[C@H](C)NC(=O)CNC(=O)[C@H](CC(C)C)NC(=O)[C@@H](N)Cc1ccccc1)C(=O)N[C@@H](CC(N)=O)C(=O)N[C@@H](CC(C)C)C(=O)N[C@@H](CC(C)C)C(=O)N[C@@H](CCC(N)=O)C(N)=O` [FLGALLGPLMNLLQ], the values for the MIC in experiment [1] and in [2] were no less than 160 µM and greater than 160 µM, respectively.
The matching figures for `CC[C@H](C)[C@H](NC(=O)CN)C(=O)N[C@@H](Cc1ccccc1)C(=O)N[C@@H](CO)C(=O)N[C@@H](CC(C)C)C(=O)N[C@H](C(=O)N[C@@H](CCCCN)C(=O)NCC(=O)N[C@@H](C)C(=O)N[C@@H](C)C(=O)N[C@@H](CCC(N)=O)C(=O)N[C@@H](CC(C)C)C(=O)N[C@H](C(=O)NCC(=O)N[C@@H](CCCCN)C(=O)N[C@H](C(=O)N[C@H](C(=O)N[C@@H](C)C(=O)N[C@@H](CCCCN)C(=O)N[C@@H](CCC(=O)O)C(=O)N[C@@H](C)C(=O)NCC(=O)N[C@@H](CCCCN)C(=O)N[C@H](C(=O)NCC(=O)N[C@@H](CC(C)C)C(=O)N[C@@H](CCC(=O)O)C(=O)N[C@@H](CC(C)C)C(=O)N[C@@H](CCSC)C(=O)N[C@@H](C)C(=O)N[C@H]1CSSC[C@@H](C(=O)O)NC(=O)[C@H](CCC(N)=O)NC(=O)[C@H](CCCCN)NC(=O)[C@H]([C@@H](C)O)NC(=O)[C@H](C(C)C)NC(=O)[C@H](CCCCN)NC1=O)[C@@H](C)O)C(C)C)[C@@H](C)O)[C@@H](C)CC)[C@@H](C)CC` [GIFSLIKGAAQLIGKTVAKEAGKTGLELMACKVTKQC]: 16.4 µM (≈ 62.5 µg/mL) and 32.8 µM (≈ 125 µg/mL).
Take `CC[C@H](C)[C@H](NC(=O)CN)C(=O)NCC(=O)N[C@@H](CCCCN)C(=O)N[C@@H](Cc1ccccc1)C(=O)N[C@@H](CC(C)C)C(=O)N[C@@H](Cc1cnc[nH]1)C(=O)N[C@@H](CO)C(=O)N[C@@H](C)C(=O)NCC(=O)N[C@@H](CCCCN)C(=O)N[C@@H](Cc1ccccc1)C(=O)NCC(=O)N[C@@H](CCCCN)C(=O)N[C@@H](C)C(=O)N[C@@H](Cc1ccccc1)C(=O)N[C@@H](CC(C)C)C(=O)NCC(=O)N[C@@H](CCC(=O)O)C(=O)N[C@H](C(=O)N[C@@H](CCSC)C(=O)N[C@@H](CCCCN)C(=O)N[C@@H](CO)C(=O)O)C(C)C` [GIGKFLHSAGKFGKAFLGEVMKS]: the MIC in [3] was 50 µM (≈ 120 µg/mL); in experiment [1] it was no less than 50 µM; in experiment [4] it was no less than 100 µM; in experiment [2], greater than 200 µM.
For the molecule `CSCC[C@H](NC(=O)[C@H](Cc1ccccc1)NC(=O)[C@H](CCCCN)NC(=O)CNC(=O)[C@H](C)NC(=O)[C@H](C)NC(=O)[C@H](CCCCN)NC(=O)[C@H](CC(C)C)NC(=O)CNC(=O)[C@H](Cc1ccccc1)NC(=O)[C@H](CCCCN)NC(=O)[C@H](CC(C)C)NC(=O)[C@H](C)NC(=O)[C@H](CCCCN)NC(=O)CNC(=O)[C@H](CC(C)C)NC(=O)[C@H](CC(C)C)NC(=O)[C@H](CO)NC(=O)CNC(=O)[C@H](CC(C)C)NC(=O)CN)C(=O)NCC(=O)NCC(=O)N[C@@H](CCC(=O)O)C(=O)N1CCC[C@H]1C(=O)N[C@@H](CCC(N)=O)C(=O)N[C@@H](CCC(N)=O)C(=O)O` [GLGSLLGKALKFGLKAAGKFMGGEPQQ], the MIC in experiment [1] and in [2] was 25 µM (≈ 67.6 µg/mL) throughout.
Turning to `CC[C@H](C)[C@H](NC(=O)CNC(=O)[C@H](CCCCN)NC(=O)[C@H](C)NC(=O)[C@@H](NC(=O)[C@H](CCCCN)NC(=O)[C@H](CCCCN)NC(=O)[C@H](CC(C)C)NC(=O)[C@@H](NC(=O)[C@H](CC(=O)O)NC(=O)[C@H](CCCCN)NC(=O)[C@@H](NC(=O)[C@H](Cc1ccccc1)NC(=O)CNC(=O)[C@@H]1CCCN1C(=O)[C@@H](NC(=O)[C@H](CCCCN)NC(=O)[C@@H](N)CC(C)C)[C@@H](C)CC)C(C)C)[C@@H](C)O)C(C)C)C(=O)N[C@@H](Cc1ccccc1)C(=O)N[C@@H](CO)C(=O)N[C@@H](C)C(=O)N[C@H](C(=O)N[C@@H](C)C(=O)NCC(=O)N[C@@H](C)C(=O)N[C@@H](CCSC)C(=O)N[C@H](C(=O)N1CCC[C@H]1C(=O)N[C@@H](CO)C(=O)O)[C@@H](C)O)C(C)C` [LKIPGFVKDTLKKVAKGIFSAVAGAMTPS], the MIC in experiment [5] is 20 µM (≈ 59.5 µg/mL); in experiment [6], 20 µM (≈ 59.5 µg/mL); in experiment [1], 20 µM (≈ 59.5 µg/mL); in experiment [4], no less than 80 µM; in [2], 40 µM (≈ 119 µg/mL).
In the experiment on Escherichia coli BW25113, `CC[C@H](C)[C@H](NC(=O)[C@@H]1CCCN1C(=O)[C@H](CCCN=C(N)N)NC(=O)[C@H](CCCN=C(N)N)NC(=O)[C@H](CCCN=C(N)N)NC(=O)[C@@H](NC(=O)[C@@H]1CCCN1C(=O)[C@@H]1CCCN1C(=O)[C@H](CCCN=C(N)N)NC(=O)[C@H](Cc1ccccc1)NC(=O)[C@@H](N)CCCN=C(N)N)[C@@H](C)CC)C(=O)N[C@@H](CCCN=C(N)N)C(=O)N1CCC[C@H]1C(=O)N1CCC[C@H]1C(=O)N[C@@H](Cc1ccccc1)C(=O)N[C@@H](Cc1ccc(O)cc1)C(=O)N1CCC[C@H]1C(=O)O` [RFRPPIRRRPIRPPFYP] showed an MIC of 8 µM (≈ 17.8 µg/mL).
`CC[C@H](C)[C@H](NC(=O)[C@@H]1CCCN1C(=O)[C@H](Cc1c[nH]c2ccccc12)NC(=O)[C@H](CCCN=C(N)N)NC(=O)[C@H](Cc1ccccc1)NC(=O)[C@@H](N)CCCN=C(N)N)C(=O)N[C@@H](CCCN=C(N)N)C(=O)N[C@@H](CCCN=C(N)N)C(=O)N[C@@H](CCCN=C(N)N)C(=O)N1CCC[C@H]1C(=O)N[C@H](C(=O)N[C@@H](CCCN=C(N)N)C(=O)N1CCC[C@H]1C(=O)N1CCC[C@H]1C(=O)N[C@@H](Cc1ccccc1)C(=O)N[C@@H](Cc1ccc(O)cc1)C(=O)N[C@@H](Cc1c[nH]c2ccccc12)C(=O)O)[C@@H](C)CC` [RFRWPIRRRPIRPPFYW] displayed an MIC against Escherichia coli BW25113 of 4 µM (≈ 9.6 µg/mL).
In the case of `CC[C@H](C)[C@H](NC(=O)[C@H](CCCN=C(N)N)NC(=O)[C@H](CCCN=C(N)N)NC(=O)[C@H](CC(C)C)NC(=O)[C@@H](N)CCCN=C(N)N)C(=O)N[C@H](C(=O)N[C@H](C(=O)N[C@H](C(=O)N[C@@H](CCCN=C(N)N)C(=O)N[C@H](C(=O)N[C@@H](CCCN=C(N)N)C(=O)N[C@@H](CCCN=C(N)N)C(N)=O)C(C)C)[C@@H](C)CC)C(C)C)C(C)C` [RLRRIVVIRVRR], the MIC in experiment [7] is 7.85 µM (≈ 12.5 µg/mL); in experiment [8] it was 5.03 µM (≈ 8 µg/mL); in experiment [9], 5.03 µM (≈ 8 µg/mL); in [10], 1.97 µM (≈ 3.13 µg/mL); in experiment [11] it was 3.93 µM (≈ 6.25 µg/mL); in experiment [12], 0.98 µM (≈ 1.56 µg/mL). Besides, the MIC in experiment [13] was found to be 1.97 µM (≈ 3.13 µg/mL); in [14], 3.93 µM (≈ 6.25 µg/mL); in experiment [15] it was 2.51 µM (≈ 4 µg/mL); in the experiment on Escherichia coli UB1005, 1.26 µM (≈ 2 µg/mL); against Candida albicans it was 19.5 µM (≈ 31 µg/mL); in [16] it was 1.26 µM (≈ 2 µg/mL). This molecule also yielded an MIC in [2] of 5.03 µM (≈ 8 µg/mL).
`CC[C@H](C)[C@H](NC(=O)[C@H](CCCN=C(N)N)NC(=O)[C@@H]1CCCN1C(=O)[C@@H](NC(=O)[C@H](CCCN=C(N)N)NC(=O)[C@@H]1CCCN1C(=O)[C@@H](NC(=O)[C@@H]1CCCN1C(=O)[C@H](Cc1ccccc1)NC(=O)[C@@H]1CCCN1C(=O)[C@@H]1CCCN1C(=O)[C@@H]1CCCN1C(=O)[C@H](Cc1ccccc1)NC(=O)[C@H](CCCN=C(N)N)NC(=O)[C@@H]1CCCN1C(=O)[C@@H](N)CCCN=C(N)N)[C@@H](C)CC)[C@@H](C)CC)C(=O)N1CCC[C@H]1C(=O)O` [RPRFPPPFPIPRIPRIP]: the MIC against Escherichia coli BW25113 is no less than 64 µM.
Turning to `CC[C@H](C)[C@H](NC(=O)[C@H](CCCCN)NC(=O)[C@H](Cc1c[nH]c2ccccc12)NC(=O)[C@H](CCCCN)NC(=O)[C@@H](N)Cc1ccc(O)cc1)C(=O)N[C@@H](CCCN=C(N)N)C(=O)N[C@@H](Cc1ccccc1)C(=O)N[C@@H](CCCCN)C(=O)N[C@@H](CCCN=C(N)N)C(=O)O` [YKWKIRFKR], the MIC in experiment [8] is 8.2 µM (≈ 10.9 µg/mL); in experiment [9], no less than 32.6 µM; in [15] it was 16.3 µM (≈ 21.6 µg/mL); with Escherichia coli UB1005 it was 4.1 µM (≈ 5.43 µg/mL); in the experiment on Candida albicans, 16.3 µM (≈ 21.6 µg/mL); in experiment [16] it was 1 µM (≈ 1.32 µg/mL). In [2], this molecule displayed an MIC of 4.1 µM (≈ 5.43 µg/mL).
